{"source": "patent US20250339450A1", "about": "“TREATMENT OF SYNGAP1 ENCEPHALOPATHY” (Harmony Biosciences Management, Inc., priority 2019, published 2025)", "system": "patients with SYNGAP1", "assay": "Four patients with SYNGAP1 in Study ZYN2-CL-025 (BELIEVE)", "type": "in vivo, human", "details": "SYNGAP1 encephalopathy patients; across the 26-week treatment period; transdermal", "description": "The trial summarized in the examples—a Phase 2 open label clinical trial—assessed the safety and efficacy of transdermal administration of CBD in a heterogeneous group of SYNGAP1 encephalopathy and other rare developmental and epileptic encephalopathies (DEEs), including but not limited to Dravet Syndrome (DS) and Lennox-Gastaut Syndrome (LGS). Some of the most common and debilitating SYNGAP1 encephalopathy seizure types are focal impaired-awareness and convulsive seizures. Patients with SYNGAP1 encephalopathy who experienced these seizure types, such as SYNGAP1 seizures, experienced seizure reductions of up to 73% across the 26-week treatment period. Qualitative assessments by caregivers in the study indicate improved behavioral problems including improved mood, engagement with others, learning ability, alertness, school attendance, as well as cognitive symptoms.\nThis was a sequential, multi-stage, open-label, multi-national, multiple-center, multiple-dose study to assess the long-term safety and tolerability of ZYN002 (transdermal CBD gel) in child and adolescent epilepsy patients from 3 to 18 years of age having seizures associated with developmental and epileptic encephalopathies (DEE) according to the International League Against Epilepsy (ILEA) classification (Scheffer et al. 2017). […]"}
{"compound": "C=C(C)C1CCC(C)=CC1c1c(O)cc(CCCCC)cc1O", "note": "(stereo not shown) [CBD, 2-[3-methyl-6-(1-methylethenyl)-2-cyclohexen-1-yl]-5-pentyl-1,3-benzenediol]", "values": [{"measurement": "seizure reductions", "value": "up to 73%"}]}
